Values joined by “and” are separate entries in the source; they are usually repeats but may differ in a detail not shown here. Identical values can stand only once.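 Where inhibition never reached the appropriate level, the endpoint shown equals the highest concentration tested. Otherwise, values were interpolated linearly from a five-concentration, 48-hour dose response in 96-well plates. GI50 is the concentration that inhibits growth by half. TGI is the concentration that stops growth completely.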
Legend:
Assay in all cases: inhibition of tumour cell growth, NCI panel, 48 h
[1] = test system: A498 renal
[2] = test system: DLD-1 colon
[3] = test system: HCC-2998 colon
[4] = test system: M19-MEL melanoma
[5] = test system: MOLT-4 leukemia
[6] = test system: NCI-H460 lung
[7] = test system: SK-MEL-28 melanoma
[8] = test system: UACC-62 melanoma
[9] = test system: MDA-MB-231 breast
[10] = test system: T-47D breast

| SMILES | TGI [1] | TGI [2] | TGI [3] | TGI [4] | TGI [5] | TGI [6] | TGI [7] | TGI [8] | GI50 [3] | GI50 [8] | GI50 [1] | GI50 [4] | GI50 [5] | GI50 [6] | GI50 [9] | TGI [9] | GI50 [7] | GI50 [10] | TGI [10] | GI50 [2] |
| --- | --- | --- | --- | --- | --- | --- | --- | --- | --- | --- | --- | --- | --- | --- | --- | --- | --- | --- | --- | --- |
| CC(C)(CN1C(=O)C(Cl)=C(Cl)C1=O)CN1C(=O)C(Cl)=C(Cl)C1=O | > 59 µM | 9.82 µM | 39.4 µM | 25 µM | 30.1 µM | > 77.3 µM | 20 µM | 29.5 µM |  |  |  |  |  |  |  |  |  |  |  |  |
| COc1cc(C2c3cc4c(cc3[C@@H](NCCN(C)C)C3COC(=O)[C@H]23)OCO4)cc(OC)c1O (stereo partly specified) |  | 4.03 µM and 7.43 µM | 1.69 µM and 2.64 µM | 4.11 µM and 7.18 µM |  | 0.135 µM and 0.326 µM | 2.14 µM and 3.38 µM | 0.319 µM and 0.834 µM | 0.383 µM and 1.21 µM | 0.0319 µM and 0.088 µM |  |  |  |  |  |  |  |  |  |  |
| Cc1ccc(NC(=O)CCc2nc(=S)[nH][nH]2)cc1 | > 100 µM | > 100 µM |  | > 100 µM | > 100 µM | > 100 µM | > 100 µM | > 100 µM |  |  |  |  |  |  |  |  |  |  |  |  |
| COc1cc[c]([Sn]([c]2ccc(OC)cc2)([c]2ccc(OC)cc2)[c]2ccc(OC)cc2)cc1 | 76.3 µM |  | 50.5 µM | > 100 µM | 39 µM | > 100 µM |  | 69.3 µM | 17.8 µM | 17.9 µM | 14.2 µM | 34.6 µM | 10.7 µM | 30.5 µM |  |  |  |  |  |  |
| COc1cc2cc(Oc3ccc(NC(=O)Nc4cc(C(F)(F)F)cc(C(F)(F)F)c4)cc3)c(C)nc2cc1OCCN1CCOCC1 | 6.69 µM |  | 6.97 µM |  | 4.29 µM | 5.52 µM | 6.94 µM | 6.9 µM | 2.09 µM | 1.67 µM | 1.8 µM |  | 1.32 µM | 1.66 µM | 1.7 µM | 6.45 µM | 1.8 µM | 2.04 µM | 10.2 µM |  |
| CSc1ccc(C2=C(c3ccccc3)C(=O)OC2)cc1 | 13.9 µM |  | 18.9 µM |  | > 100 µM | > 34.8 µM | > 100 µM | 53.8 µM | 0.309 µM | 0.715 µM | 3.13 µM |  | 0.174 µM | 1.29 µM | 0.425 µM | 20.9 µM | 6.69 µM | 1.22 µM | > 100 µM |  |
| Cc1ccc(CNc2ccc(Br)cc2)cc1 | > 100 µM |  | 66 µM |  | > 100 µM | > 100 µM | > 100 µM | > 100 µM |  |  |  |  |  |  |  | > 100 µM |  |  | > 100 µM |  |
| NC(=O)c1ccc2c(c1)-c1nc-2nc2[n-]c(nc3nc(nc4[n-]c(n1)c1ccc(C(N)=O)cc41)-c1ccc(C(N)=O)cc1-3)c1ccc(C(N)=O)cc21.[Co+2] | > 50 µM | > 50 µM |  |  | > 50 µM | > 50 µM | > 50 µM | > 50 µM |  | > 50 µM | > 50 µM |  | > 50 µM | > 50 µM |  |  | > 50 µM |  |  | 43.5 µM |
| CCCn1c2c(c3ccccc3c1=O)C(=O)c1ccccc1-2 | > 100 µM |  | > 100 µM |  | > 100 µM | > 100 µM | > 100 µM | > 100 µM |  |  |  |  |  |  |  | > 100 µM |  |  | > 100 µM |  |
| COc1cc2oc(-c3cccc(C(=O)Nc4ccc(Cl)cc4)c3)cc(=O)c2c(OC)c1OC | 7.82 µM |  | > 100 µM |  | > 100 µM | > 100 µM | 5.89 µM | 8.65 µM | 3.05 µM | 2.5 µM | 2 µM |  | 2.22 µM | 2.76 µM | 1.58 µM | > 100 µM | 1.84 µM | 1.68 µM | > 100 µM |  |

— PubChem BioAssay (NCI)
